Tests used:
HCT-116 = experiment: Antiproliferative activity against HCT116 colon cancer cell line; format: functional; settings: Homo sapiens
[1] = molecular target: Glycogen synthase kinase-3 beta (Homo sapiens, UniProt P49841); experiment: Inhibition of GSK3-beta using 10 uM ATP
[2] = molecular target: Cyclin-dependent kinase 1 (Homo sapiens, UniProt P06493); experiment: Inhibition of CDK1 using 100 uM ATP
[3] = molecular target: T1, Serine/threonine-protein kinase Chk1 (Homo sapiens, UniProt O14757); experiment: Inhibition of Chk1
T1 sequence (O14757 whole entry): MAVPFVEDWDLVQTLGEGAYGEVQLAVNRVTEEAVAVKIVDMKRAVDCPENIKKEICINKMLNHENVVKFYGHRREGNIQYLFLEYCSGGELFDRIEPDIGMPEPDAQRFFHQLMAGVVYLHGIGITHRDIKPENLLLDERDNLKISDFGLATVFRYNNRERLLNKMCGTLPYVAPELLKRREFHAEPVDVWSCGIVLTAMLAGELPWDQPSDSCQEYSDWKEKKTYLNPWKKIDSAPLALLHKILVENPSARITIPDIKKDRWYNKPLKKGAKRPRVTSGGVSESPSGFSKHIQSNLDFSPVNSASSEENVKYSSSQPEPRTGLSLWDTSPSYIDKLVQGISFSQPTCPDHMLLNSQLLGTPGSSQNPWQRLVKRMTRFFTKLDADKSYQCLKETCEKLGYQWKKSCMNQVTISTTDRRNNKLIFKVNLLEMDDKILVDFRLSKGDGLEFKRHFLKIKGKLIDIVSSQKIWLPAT

[4] = Inhibition of PDK1; design: species or system Homo sapiens
[5] = molecular target: Cyclin-dependent kinase 2 (Homo sapiens, UniProt P24941); experiment: Inhibition of CDK2 using 100 uM ATP

Chain of Glycogen synthase kinase-3 beta (P49841 whole entry): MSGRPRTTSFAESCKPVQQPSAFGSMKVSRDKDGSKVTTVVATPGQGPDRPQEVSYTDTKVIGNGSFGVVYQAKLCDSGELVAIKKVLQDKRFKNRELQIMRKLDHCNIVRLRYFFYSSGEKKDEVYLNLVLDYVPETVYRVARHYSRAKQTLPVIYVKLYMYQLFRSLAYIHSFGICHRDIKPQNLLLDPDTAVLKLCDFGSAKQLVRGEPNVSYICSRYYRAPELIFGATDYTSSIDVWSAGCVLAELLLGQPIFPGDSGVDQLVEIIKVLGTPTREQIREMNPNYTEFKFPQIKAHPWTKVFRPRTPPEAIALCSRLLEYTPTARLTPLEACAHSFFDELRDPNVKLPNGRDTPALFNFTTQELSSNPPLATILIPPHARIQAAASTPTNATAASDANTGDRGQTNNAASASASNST
Chain of Cyclin-dependent kinase 1 (P06493 whole entry): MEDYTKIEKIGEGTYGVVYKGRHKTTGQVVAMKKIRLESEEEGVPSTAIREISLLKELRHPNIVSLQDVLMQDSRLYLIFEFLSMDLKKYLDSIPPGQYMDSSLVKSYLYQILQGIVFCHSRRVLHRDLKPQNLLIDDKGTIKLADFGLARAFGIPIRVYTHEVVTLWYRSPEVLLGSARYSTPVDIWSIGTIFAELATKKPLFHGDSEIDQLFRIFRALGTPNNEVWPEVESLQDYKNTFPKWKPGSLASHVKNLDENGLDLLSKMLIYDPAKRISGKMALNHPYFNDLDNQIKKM

SMILES | GI50 (HCT-116) | IC50 [1] | IC50 [2] | IC50 [4] | IC50 [5] | IC50 [3]
NS(=O)(=O)c1ccc(Nc2cc(OC3CCCCC3)nc3ncnn23)cc1 | 25 µM | 0.19 µM | 0.14 µM | – | – | –
CN(C)S(=O)(=O)c1ccc(Nc2cc(N[C@H]3CC[C@H](N)CC3)nc3ncnn23)cc1 | > 80 µM | 20 µM | 5.6 µM | > 200 µM | 0.12 µM | 21 µM
NS(=O)(=O)c1ccc(Nc2cc(OCC3CCCCC3)nc3ncnn23)cc1 | – | 29 µM | – | – | – | –
N[C@H]1CC[C@H](Nc2cc(Nc3ccc(S(=O)(=O)c4ccccc4)cc3)n3ncnc3n2)CC1 | > 80 µM | 50 µM | 4.3 µM | – | – | –
Brc1cccc(-c2cc(NCc3ccncc3)n3nccc3n2)c1 | 8 µM | – | – | – | – | –
CCN(CC)c1cc(Nc2ccc(S(N)(=O)=O)cc2)n2ncnc2n1 | 23 µM | 11 µM | 3.4 µM | – | 0.4 µM | –
NS(=O)(=O)c1ccc(Nc2nc(OCC3CCCCC3)c3nc[nH]c3n2)cc1 | – | 0.04 µM | – | < 0.5 µM | – | < 0.5 µM

The next lines start with results.

GI50 (HCT-116) | IC50 [1] | IC50 [2] | IC50 [4] | IC50 [5] | SMILES | IC50 [3]
> 80 µM | 43 µM | 16 µM | – | – | CS(=O)(=O)c1ccc(Nc2cc(N[C@H]3CC[C@H](N)CC3)nc3ncnn23)cc1 | –
> 80 µM | 0.78 µM | – | 43 µM | – | NS(=O)(=O)c1ccc(Nc2cc(N[C@H]3CC[C@H](N)CC3)nc3ncnn23)cc1 | –
31 µM | 0.97 µM | – | – | – | NS(=O)(=O)c1ccc(Nc2cc(NC3CCCCC3)nc3ncnn23)cc1 | –
39 µM | – | – | – | – | NS(=O)(=O)c1ccc(Nc2cc(N[C@H]3CC[C@H](O)CC3)nc3ncnn23)cc1 | –
